{"source": "PubChem BioAssay AID2060491", "about": "(Molecular Pharmacology Branch, DTP, NCI, 2025)", "test_system": "857933-349-R-J2-PDC complex spheroids, viability", "assay": "Anticancer human tumor 857933-349-R-J2-PDC patient-derived colon adenocarcinoma cell line growth inhibition [GQUAD]", "settings": "for viability, T/C: stronger effect = lower value; for IC50: curve of compound", "excerpt": "DNA G-quadruplex Stabilizer Agents in Combinations in Complex Spheroids\nA high-throughput screen of multi-cell type tumor spheroids was designed to identify active combinations of DNA G-quadruplex stabilizer agents and targeted small molecules. Complex spheroids include a stromal component modeled by human endothelial cells (HUVEC) and fibroblasts modeled by human mesenchymal stem cells (MSCs). The concentration ranges selected for each drug and investigational agent were based upon clinically achievable concentrations if the clinical Cmax of the agent was known.\nCompounds. The drugs and investigational agents: pidnarulex (CX-5461; NSC782164), APTO-253 (NSC789042), BRACO-19 (NSC847499), peposertib (NSC802822), ceralasertib (NSC780249), elimusertib (NSC800525), camonsertib (NSC841442), AZD-1390 (NSC803789), olaparib (NSC753686), talazoparib (NSC767125), ART-558 (NSC835418), sotorasib (NSC818433), MRTX-1133 (NSC836407), SN-38 (NSC673596), topotecan (NSC609699), etoposide (NSC141540), doxorubicin (NSC123127), gemcitabine (NSC613327), 5-fluorouracil (NSC19893), paclitaxel (NSC125973), vemurafenib (NSC761431), panobinostat (NSC761190), R-306465 (JNJ-16241199; NSC773264), adavosertib (NSC754352), TP-3654 (NSC805149), carboplatin (NSC241240), KSQ-4279 (NSC840948), and staurosporine (NSC755774) were obtained from the National Cancer Institute (NCI) Developmental Therapeutics Program Chemical Repository (34). The FDA-approved anticancer drug set is available from the NCI Developmental Therapeutics Program. […] The stock solutions were prepared in dimethyl sulfoxide (DMSO, Sigma-Aldrich, St. Louis, MO, cat. D2650) at 800-fold the tested concentration and stored at -70 degrees C prior to their use. All drugs and investigational agents were tested over a range starting from a high concentration at or near the clinical Cmax and decreasing in half-log increments. If the clinical Cmax for an agent had not been determined, the highest concentration tested was 10 microM.\n2.3 Cell Culture. All cells were maintained in an incubator at 37 degrees C and 5% CO2 with 95% humidity. The PDC lines were cultured according to standard operating procedures established by the NCI PDMR. All PDCs were thawed and cultured in Matrigel-coated flasks prepared with a working solution of 1X Ham's F-12 nutrient mix, without supplementation (Invitrogen, cat. 11765054), 100 U/mL penicillin-streptomycin (Invitrogen, cat. 15140122), and 2.5% Matrigel (Corning Inc., cat. 354248) for the first three passages. The 857933-349-R-J2-PDC line was cultured in 6C/Colon 1B media, which includes advanced DMEM/F-12 (Thermo Fisher Scientific, cat. 12634028), 10 mM HEPES (Thermo Fisher Scientific, cat. 15630080), 1X GlutaMAX supplement (Thermo Fisher Scientific, cat. 35050061), 0.1 mg/mL primocin (InvivoGen, cat. ant-pm-2), 10% defined fetal bovine serum, heat inactivated (HyClone Laboratories Inc., cat. SH30070.03HI), 50% L-WRN conditioned media (ATCC, cat. CRL-3276), 1.25 mM N-Acetyl-L-cysteine (Sigma-Aldrich, cat. A9165), 10 mM nicotinamide (Sigma-Aldrich, cat. N0636), 1X B-27 supplement (Thermo Fisher Scientific, cat. 17504044), 1X N-2 supplement (Thermo Fisher Scientific, cat. 17502048), 10 microM Y-27632 dihydrochloride (Tocris Bioscience, cat. 1254), and 50 ng/mL human EGF recombinant protein (Thermo Fisher Scientific, cat. PHG0311). The 485176-168-R4-J1-PDC line was cultured in Panc media, which includes all 6C/Colon 1B media components plus 100 ng/mL human FGF-10 (Thermo Fisher Scientific, cat. 100-26), 500 nM SB-431542 (Selleckchem, cat. S1067), and gastrin (Tocris, cat. 3006).\n[…]", "note": "“And” between values parts separate entries of the source, which are not always exact repeats. Identical values can stand only once.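 Also: spheroids exposed to compounds for one week before readout.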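 For viability, T/C in this document: percent viability relative to vehicle DMSO wells taken as 100%.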", "data": [{"smiles": "Cc1[nH]c2ccccc2c1CCNCc1ccc(/C=C/C(=O)NO)cc1", "values": [{"measurement": "viability, T/C", "setting": "compound 0.000999 µM", "result": "100% and 105% (2×)"}, {"measurement": "viability, T/C", "setting": "compound 0.00316 µM", "result": "102% (2×) and 105%"}, {"measurement": "viability, T/C", "setting": "compound 0.00999 µM", "result": "102% and 112% and 104%"}, {"measurement": "viability, T/C", "setting": "compound 0.0316 µM", "result": "107% and 104% and 96.4%"}, {"measurement": "viability, T/C", "setting": "compound 0.0999 µM", "result": "102% (2×) and 94.5%"}, {"measurement": "viability, T/C", "setting": "compound 0.316 µM", "result": "53% and 66.9% and 44.9%"}, {"measurement": "IC50", "result": "> 316 nM and 283 nM"}]}, {"smiles": "O=C(c1cc(Cc2n[nH]c(=O)c3ccccc23)ccc1F)N1CCN(C(=O)C2CC2)CC1", "values": [{"measurement": "viability, T/C", "setting": "compound 0.0316 µM", "result": "99.4% and 111% and 122%"}, {"measurement": "viability, T/C", "setting": "compound 0.1 µM", "result": "104% and 105% and 95.9%"}, {"measurement": "viability, T/C", "setting": "compound 0.316 µM", "result": "90.5% and 106% and 98.7%"}, {"measurement": "viability, T/C", "setting": "compound 1 µM", "result": "92.2% and 107% and 88.4%"}, {"measurement": "viability, T/C", "setting": "compound 3.16 µM", "result": "108% and 98.6% and 97%"}, {"measurement": "viability, T/C", "setting": "compound 10 µM", "result": "101% and 106% and 96%"}, {"measurement": "IC50", "result": "> 10000", "unit": "nM"}]}, {"smiles": "CCCS(=O)(=O)Nc1ccc(F)c(C(=O)c2c[nH]c3ncc(-c4ccc(Cl)cc4)cc23)c1F", "values": [{"measurement": "viability, T/C", "setting": "compound 0.0316 µM", "result": "104% and 111% and 98.5%"}, {"measurement": "viability, T/C", "setting": "compound 0.1 µM", "result": "97.2% and 102% and 92%"}, {"measurement": "viability, T/C", "setting": "compound 0.316 µM", "result": "97.4% and 105% and 95.5%"}, {"measurement": "viability, T/C", "setting": "compound 1 µM", "result": "102% and 101% and 96.5%"}, {"measurement": "viability, T/C", "setting": "compound 3.16 µM", "result": "84.9% and 90.6% and 95.8%"}, {"measurement": "viability, T/C", "setting": "compound 10 µM", "result": "4.82% and 5.71% and 6.52%"}, {"measurement": "IC50", "result": "5230 nM and 5490 nM and 5700 nM"}]}, {"smiles": "COc1cc(C2c3cc4c(cc3C(OC3OC5COC(C)OC5C(O)C3O)C3COC(=O)C23)OCO4)cc(OC)c1O", "note": "(stereo not drawn)", "values": [{"measurement": "viability, T/C", "setting": "compound 0.0316 µM", "result": "86.8% and 82.9% and 104%"}, {"measurement": "viability, T/C", "setting": "compound 0.1 µM", "result": "53.1% and 58.3% and 93.6%"}, {"measurement": "viability, T/C", "setting": "compound 0.316 µM", "result": "55.8% and 48.1% and 82.6%"}, {"measurement": "viability, T/C", "setting": "compound 1 µM", "result": "48.6% and 52.9% and 78.4%"}, {"measurement": "viability, T/C", "setting": "compound 3.16 µM", "result": "42.6% and 39.1% and 59.5%"}, {"measurement": "viability, T/C", "setting": "compound 10 µM", "result": "27.6% and 27.1% and 41.6%"}]}, {"smiles": "CC(C)(O)C1CCC(Nc2ccc3ncc(-c4cccc(C(F)(F)F)c4)n3n2)CC1", "note": "(stereo not drawn)", "values": [{"measurement": "viability, T/C", "setting": "compound 0.0316 µM", "result": "106% and 103% and 98.1%"}, {"measurement": "viability, T/C", "setting": "compound 0.1 µM", "result": "94% and 102% and 87.3%"}, {"measurement": "viability, T/C", "setting": "compound 0.316 µM", "result": "89% and 96.2% and 80.1%"}, {"measurement": "viability, T/C", "setting": "compound 1 µM", "result": "36.2% and 39.3% and 10.5%"}, {"measurement": "viability, T/C", "setting": "compound 3.16 µM", "result": "2.72% and 3.1% and 0.35%"}, {"measurement": "viability, T/C", "setting": "compound 10 µM", "result": "2.99% and 3.23% and 0.57%"}, {"measurement": "IC50", "result": "734 nM and 803 nM and 519 nM"}]}, {"smiles": "CC1COCCN1c1cc(C2(S(C)(=N)=O)CC2)nc(-c2ccnc3[nH]ccc23)n1", "note": "(stereo not drawn)", "values": [{"measurement": "viability, T/C", "setting": "compound 0.0316 µM", "result": "107% and 106% and 99%"}, {"measurement": "viability, T/C", "setting": "compound 0.1 µM", "result": "96.8% and 99.1% and 94.2%"}, {"measurement": "viability, T/C", "setting": "compound 0.316 µM", "result": "96.2% and 105% and 84.3%"}, {"measurement": "viability, T/C", "setting": "compound 1 µM", "result": "68.3% and 92.9% and 61.6%"}, {"measurement": "viability, T/C", "setting": "compound 3.16 µM", "result": "57.1% and 82.2% and 48.8%"}, {"measurement": "viability, T/C", "setting": "compound 10 µM", "result": "47% and 65.2% and 39.2%"}, {"measurement": "IC50", "result": "7380 nM and > 10000 nM and 2570 nM"}]}, {"smiles": "Nc1ccn(C2OC(CO)C(O)C2(F)F)c(=O)n1", "note": "(stereo not drawn)", "values": [{"measurement": "viability, T/C", "setting": "compound 0.0316 µM", "result": "75.3% and 98.5% and 97.2%"}, {"measurement": "viability, T/C", "setting": "compound 0.1 µM", "result": "43.2% and 80.9% and 48.4%"}, {"measurement": "viability, T/C", "setting": "compound 0.316 µM", "result": "45.5% and 58.7% and 54.6%"}, {"measurement": "viability, T/C", "setting": "compound 1 µM", "result": "12.3% and 22.7% and 10.3%"}, {"measurement": "viability, T/C", "setting": "compound 3.16 µM", "result": "8.31% and 14.9% and 6.52%"}, {"measurement": "viability, T/C", "setting": "compound 10 µM", "result": "6.59% and 14.8% and 5.26%"}, {"measurement": "IC50", "result": "105 nM and 386 nM and 161 nM"}]}]}
